These molecules were tested on cholesterol biosynthesis (assay: inhibition of cholesterol biosynthesis (method of J. Biol. Chem. 234, 2835 (1959))). Settings: method of Journal of Biological Chemistry, 234, 2835 (1959).
Format: biochemical
Description: The compounds of the invention in which R^1 and R^2 both represent oxygen atoms are, as already described, valuable intermediates for the synthesis of the active compounds. The inhibitory activities of certain of the compounds of the invention, in terms of the concentration in ng/ml required to inhibit colesterol biosynthesis by 50% [measured by the method described in the Journal of Biological Chemistry, 234, 2835 (1959)], are as follows (for comparison, the value for ML-236B lactone is also given): […]

SMILES | concentration required to inhibit colesterol biosynthesis by 50% [ng/mL]
CCC(C)C(=O)OC1CCC(=NO)C2=CC(=NO)C(C)C(CCC3CC(O)CC(=O)O3)C21 (single isomer, unassigned) [isomer a (Example 3), 3,4-Dihydro-4,6-bis(hydroxyimino)IsoML-236B lactone] | 4.5
CCC(C)C(=O)OC1CCC(=NO)C2=CC(=NO)C(C)C(CCC3CC(O)CC(=O)O3)C21 (single isomer, unassigned) [isomer b (Example 3), 3,4-Dihydro-4,6-bis(hydroxyimino)IsoML-236B lactone] | 4.3
CC1C(=O)C=C2C(=NO)CCC(O)C2C1CCC1CC(O)CC(=O)O1 (centres unmarked) [3,4-Dihydro-6-oxo-4-hydroxyiminoIsoML-236A lactone] | 0.9
CCC(C)C(=O)OC1CCC(=NO)C2=CC(=O)C(C)C(CCC3CC(O)CC(=O)O3)C21 (centres unmarked) [3,4-Dihydro-6-oxo-4-hydroxyiminoIsoML-236B lactone] | 0.3
CCC(C)C(=O)OC1CCC(=NOC)C2=CC(=O)C(C)C(CCC3CC(O)CC(=O)O3)C21 (centres unmarked) [3,4-Dihydro-6-oxo-4-methoxyiminoIsoML-236B lactone] | 0.6
CCC(C)C(=O)OC1CCC=C2C=CC(C)C(CCC3CC(O)CC(=O)O3)C21 (centres unmarked) [ML-236B lactone, reference compound] | 10
CCC(C)C(=O)OC1CCC(=NO)C2=CC(=O)C(C)C(CCC(O)CC(O)CC(=O)O)C21 (centres unmarked) [disodium 3,4-dihydro-6-oxo-4-oxidoiminoIsoML-236B carboxylat] [Disodium 3,4-dihydro-6-oxo-4-oxidoiminoIsoML-236B carboxylate] | 0.4
CCC(C)C(=O)OC1CCC(=NO)C2=CC(=O)C(C)C(CCC(O)CC(O)CC(=O)O)C21 (centres unmarked) [sodium 3,4-dihydro-6-oxo-4-hydroxyiminoIsoML-236B carboxylat] [Sodium 3,4-dihydro-6-oxo-4-hydroxyiminoIsoML-236B carboxylate] | 0.3
